From PubChem BioAssay AID248 (DTP/NCI, 2004)
“And” between values parts separate entries of the source, which are not always exact repeats. Identical values can stand only once. Toxic doses and inconclusive results are not listed. No stated cut-off is given here; in the data, active means T/C of 150% or more; inactive means T/C below 125%. Peptide text beside a SMILES is read from it. * marks the point of attachment. Cbz = O=C(OCc1ccccc1)*

System: L1210 leukemia ip in BDF1 mice, survival T/C
Assay: NCI In Vivo Anticancer Drug Screen. Data for tumor model L1210 Leukemia (intraperitoneal) in B6D2F1 (BDF1) mice
Conditions: endpoint: mean survival time, higher = longer survival
How it was run: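 Tumor was transplanted into mice, which were then dosed with test compound or vehicle alone. Survival was recorded for each group, and the treated figure was expressed relative to the control figure.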

[1] = dose: 100.0 mg/kg/injection, schedule: Q04DX003 (ip), vehicle: Klucel (hydroxypropylcellulose) (HPC)
[2] = dose: 200.0 mg/kg/injection, schedule: Q04DX003 (ip), vehicle: Klucel (hydroxypropylcellulose) (HPC)
[3] = dose: 400.0 mg/kg/injection, schedule: Q04DX003 (ip), vehicle: Klucel (hydroxypropylcellulose) (HPC)
[4] = dose: 100.0 mg/kg/injection, schedule: Q04DX003 (ip), vehicle: saline with Tween-80
[5] = dose: 200.0 mg/kg/injection, schedule: Q04DX003 (ip), vehicle: saline with Tween-80
[6] = dose: 400.0 mg/kg/injection, schedule: Q04DX003 (ip), vehicle: saline with Tween-80
[7] = dose: 100.0 mg/kg/injection, schedule: Q01DX001 (ip), vehicle: Klucel (hydroxypropylcellulose) (HPC)
[8] = dose: 200.0 mg/kg/injection, schedule: Q01DX001 (ip), vehicle: Klucel (hydroxypropylcellulose) (HPC)
[9] = dose: 400.0 mg/kg/injection, schedule: Q01DX001 (ip), vehicle: Klucel (hydroxypropylcellulose) (HPC)
[10] = dose: 100.0 mg/kg/injection, schedule: Q01DX001 (ip), vehicle: saline
[11] = dose: 200.0 mg/kg/injection, schedule: Q01DX001 (ip), vehicle: saline

Measured: T/C

CCOC(=O)CCC(NC(=O)C(CCC(=O)O)NC(=O)OCc1ccccc1)C(=O)OCC (stereo not drawn) (Cbz-Glu-Glu(OEt)-OEt; configuration not given here)
inactive: [1] 94 % of control | [2] 101 % of control | [3] 96 % of control

CCOC(=O)C(CC)C(=O)OCC
inactive: [4] 104 % of control | [5] 98 % of control | [6] 93 % of control

O=CC1OC(c2ccccc2)OC2COC(c3ccccc3)OC12 (stereo unspecified)
inactive: [7] 103 % of control | [8] 97 % of control | [9] 93 % of control

CCCCCCNC(=O)COc1ccc(Cl)cc1
inactive: dose: 100.0 mg/kg/injection, schedule: Q04DX002 (ip), vehicle: Klucel (hydroxypropylcellulose) (HPC) 97 % of control | dose: 200.0 mg/kg/injection, schedule: Q04DX002 (ip), vehicle: Klucel (hydroxypropylcellulose) (HPC) 93 % of control | dose: 400.0 mg/kg/injection, schedule: Q04DX002 (ip), vehicle: Klucel (hydroxypropylcellulose) (HPC) 101 % of control

Nc1ncnc2cc[nH]c12
inactive: dose: 88.0 mg/kg/injection, schedule: Q01DX001 (ip), vehicle: carboxymethylcellulose (CMC) 102 % of control and 104 % of control | dose: 133.0 mg/kg/injection, schedule: Q01DX001 (ip), vehicle: carboxymethylcellulose (CMC) 96 % of control and 104 % of control | dose: 200.0 mg/kg/injection, schedule: Q01DX001 (ip), vehicle: carboxymethylcellulose (CMC) 102 % of control and 106 % of control

COc1nc(=O)n(C2OC(CO)C(O)C2O)cc1F (stereo unspecified)
inactive: dose: 50.0 mg/kg/injection, schedule: Q01DX001 (ip), vehicle: saline 95 % of control | [10] 90 % of control | [11] 93 % of control | dose: 400.0 mg/kg/injection, schedule: Q01DX001 (ip), vehicle: saline 90 % of control

CCCOCCC(c1ccccc1)(c1ccccc1)c1ccccc1
inactive: dose: 12.5 mg/kg/injection, schedule: Q01DX009 (ip), vehicle: saline with Tween-80 98 % of control | dose: 25.0 mg/kg/injection, schedule: Q01DX009 (ip), vehicle: saline with Tween-80 98 % of control | dose: 50.0 mg/kg/injection, schedule: Q01DX009 (ip), vehicle: saline with Tween-80 95 % of control | dose: 200.0 mg/kg/injection, schedule: Q01DX009 (ip), vehicle: saline with Tween-80 87 % of control

CCOC(=O)N/N=C(/C)c1cccc([N+](=O)[O-])c1
inactive: dose: 25.0 mg/kg/injection, schedule: Q01DX009 (ip), vehicle: Klucel (hydroxypropylcellulose) (HPC) 103 % of control | dose: 50.0 mg/kg/injection, schedule: Q01DX009 (ip), vehicle: Klucel (hydroxypropylcellulose) (HPC) 103 % of control | dose: 100.0 mg/kg/injection, schedule: Q01DX009 (ip), vehicle: Klucel (hydroxypropylcellulose) (HPC) 100 % of control and 111 % of control

BrC1(Br)C2C3C=CC4C(C=C3)C4C21 (stereo unspecified)
inactive: dose: 50.0 mg/kg/injection, schedule: Q01DX001 (ip), vehicle: Klucel (hydroxypropylcellulose) (HPC) 105 % of control | [7] 103 % of control | [8] 108 % of control

CCCC(C(O)CC)[N+](=O)[O-] (stereo unspecified)
inactive: [7] 95 % of control | [8] 97 % of control | [9] 101 % of control

CC1(C)N=C(N)N=C(N)N1c1cccc(C(=O)Nc2cccc(S(=O)(=O)F)c2)c1
inactive: dose: 6.25 mg/kg/injection, schedule: Q#A X018 (ip), vehicle: saline 97 % of control | dose: 12.5 mg/kg/injection, schedule: Q01DX009 (ip), vehicle: saline 103 % of control | dose: 12.5 mg/kg/injection, schedule: Q#A X018 (ip), vehicle: saline 101 % of control | dose: 25.0 mg/kg/injection, schedule: Q01DX009 (ip), vehicle: saline 101 % of control | dose: 25.0 mg/kg/injection, schedule: Q#A X018 (ip), vehicle: saline 101 % of control | dose: 50.0 mg/kg/injection, schedule: Q01DX009 (ip), vehicle: saline 95 % of control and 107 % of control | dose: 50.0 mg/kg/injection, schedule: Q#A X018 (ip), vehicle: saline 101 % of control | [10] 105 % of control | dose: 100.0 mg/kg/injection, schedule: Q01DX009 (ip), vehicle: saline 104 % of control | [11] 94 % of control

CC(=O)OC(C(=O)O)C(OC(C)=O)C(=O)NCCO (stereo unspecified)
inactive: dose: 100.0 mg/kg/injection, schedule: Q01DX001 (ip), vehicle: water 94 % of control | dose: 100.0 mg/kg/injection, schedule: Q04DX003 (ip), vehicle: water 87 % of control | dose: 200.0 mg/kg/injection, schedule: Q01DX001 (ip), vehicle: water 96 % of control | dose: 200.0 mg/kg/injection, schedule: Q04DX003 (ip), vehicle: water 95 % of control | dose: 400.0 mg/kg/injection, schedule: Q01DX001 (ip), vehicle: water 94 % of control | dose: 400.0 mg/kg/injection, schedule: Q04DX003 (ip), vehicle: water 97 % of control

Nc1nc2c(nc([Se])n2C2OC(CO)C(O)C2O)c(=O)[nH]1 (stereo unspecified)
inactive: dose: 100.0 mg/kg/injection, schedule: Q01DX005 (ip), vehicle: saline 98 % of control | dose: 200.0 mg/kg/injection, schedule: Q01DX005 (ip), vehicle: saline 98 % of control

O=C(O)C1C=CC(C(=O)O)c2ccccc21 (stereo unspecified)
inactive: [1] 102 % of control | [2] 96 % of control | [3] 98 % of control

S=c1cc[nH]c2n[nH]nc12
inactive: dose: 100.0 mg/kg/injection, schedule: Q01DX001 (ip), vehicle: saline with Tween-80 101 % of control | [4] 104 % of control | dose: 200.0 mg/kg/injection, schedule: Q01DX001 (ip), vehicle: saline with Tween-80 101 % of control | [5] 101 % of control | dose: 400.0 mg/kg/injection, schedule: Q01DX001 (ip), vehicle: saline with Tween-80 103 % of control | [6] 98 % of control

NC(=O)c1ccccc1I
inactive: dose: 75.0 mg/kg/injection, schedule: Q01DX001 (ip), vehicle: saline 101 % of control | dose: 75.0 mg/kg/injection, schedule: Q01DX009 (ip), vehicle: saline 103 % of control | dose: 150.0 mg/kg/injection, schedule: Q01DX001 (ip), vehicle: saline 96 % of control | dose: 150.0 mg/kg/injection, schedule: Q01DX009 (ip), vehicle: saline 86 % of control | dose: 300.0 mg/kg/injection, schedule: Q01DX001 (ip), vehicle: saline 96 % of control | dose: 300.0 mg/kg/injection, schedule: Q01DX009 (ip), vehicle: saline 100 % of control

NC(=O)N(CCc1ccccc1)N=O
inactive: dose: 6.25 mg/kg/injection, schedule: Q01DX Z (ip), vehicle: carboxymethylcellulose (CMC) 98 % of control | dose: 12.5 mg/kg/injection, schedule: Q01DX Z (ip), vehicle: carboxymethylcellulose (CMC) 109 % of control | dose: 25.0 mg/kg/injection, schedule: Q01DX Z (ip), vehicle: carboxymethylcellulose (CMC) 98 % of control | dose: 50.0 mg/kg/injection, schedule: Q01DX Z (ip), vehicle: carboxymethylcellulose (CMC) 118 % of control | dose: 75.0 mg/kg/injection, schedule: Q01DX Z (ip), vehicle: carboxymethylcellulose (CMC) 103 % of control | dose: 100.0 mg/kg/injection, schedule: Q01DX Z (ip), vehicle: carboxymethylcellulose (CMC) 114 % of control | dose: 150.0 mg/kg/injection, schedule: Q01DX Z (ip), vehicle: carboxymethylcellulose (CMC) 120 % of control | dose: 200.0 mg/kg/injection, schedule: Q01DX Z (ip), vehicle: carboxymethylcellulose (CMC) 111 % of control

CC(C)COC1CCCC(Oc2ccccc2)O1 (stereo unspecified)
inactive: dose: 55.0 mg/kg/injection, schedule: Q01DX Z (ip), vehicle: methylcellulose (MC) 92 % of control | dose: 83.0 mg/kg/injection, schedule: Q01DX Z (ip), vehicle: methylcellulose (MC) 100 % of control | dose: 125.0 mg/kg/injection, schedule: Q01DX Z (ip), vehicle: methylcellulose (MC) 91 % of control
